Measurements from patent US12440498B2 (priority 2020, dated 2025).

Legend:
A/H1N1 virus = assay: microbe, parasite or virus in culture; type: cell-based, influenza A virus; conditions: Influenza A virus, H1N1, MDCK, read-out: IC50 baloxavir (active form)
[1] = test system: A/H1N1 I38T (I38T mutation on the PA subunit, baloxavir-resistant); type: cell-based, influenza A virus
[2] = test system: influenza virus with M431I substitution in PB2; conditions: cited from earlier work

Which IC50 (A/H1N1 virus) does the source give for `O=C1c2c(O)c(=O)ccn2N([C@@H]2c3ccccc3SCc3c2ccc(F)c3F)[C@@H]2COCCN12` [baloxavir, baloxavir acid] here?
Its IC50 is 0.2 nM.

With `COc1ccc([C@@H]2Sc3ccccc3N(CCN(C)C)C(=O)[C@@H]2OC(C)=O)cc1.Cl` [diltiazem] as the molecule, how does the “transepithelial resistance (TEER), integrity of infected epithelia” value [1] read?
The value was “remain stable”.

With `O=C(O)[C@H]1C2CCC(CC2)[C@@H]1Nc1nc(-c2c[nH]c3ncc(F)cc23)ncc1F` [pimodivir] as the molecule, how does the decrease in sensitivity [2] read?
The decrease in sensitivity was “around 60 fold”.
